Series [1] concerns the target T1, 5-hydroxytryptamine receptor 6 (Homo sapiens, UniProt P50406). Briefly: Displacement of [3H]LSD from human 5HT6 receptor by scintillation counting. In general terms: Loss of bound radioactivity is the signal in a displacement assay; it reports binding, not function.
Series [2] addresses T2, 5-hydroxytryptamine receptor 2B (Homo sapiens, UniProt P41595). Nature of the series: Displacement of [3H]5HT from human 5HT2B receptor expressed in CHO cells by scintillation counting. In kind it is cell-based.
Series [3] deals with T2, 5-hydroxytryptamine receptor 2B. Briefly: Agonist activity at human 5HT2B receptor expressed in CHO cells assessed as intracellular cAMP formation by RIA. In kind it is functional, cell-based. In general terms: Changes in cAMP serve as a functional read-out for many G protein-coupled receptors.
For series [4] the target is unchanged. Briefly: Antagonist activity at human 5HT2B receptor expressed in CHO cells assessed as intracellular cAMP formation by RIA. In kind it is functional, cell-based.
Series [5] addresses T1, 5-hydroxytryptamine receptor 6. Nature of the series: Antagonist activity at human cloned 5HT6 receptor expressed in human HeLa cells assessed as intracellular cAMP formation by RIA. In kind it is functional, cell-based.
Series [6] deals with 5-hydroxytryptamine receptor 1D (Homo sapiens, UniProt P28221). Briefly: Binding affinity to 5HT1D receptor.
A short description of series [7]: Solubility at pH 7.4. In kind it is physicochemical. To be noted: buffer.
For series [8], the target named is T3, Alpha-2A adrenergic receptor (Homo sapiens, UniProt P08913).
T3 sequence (P08913 whole entry): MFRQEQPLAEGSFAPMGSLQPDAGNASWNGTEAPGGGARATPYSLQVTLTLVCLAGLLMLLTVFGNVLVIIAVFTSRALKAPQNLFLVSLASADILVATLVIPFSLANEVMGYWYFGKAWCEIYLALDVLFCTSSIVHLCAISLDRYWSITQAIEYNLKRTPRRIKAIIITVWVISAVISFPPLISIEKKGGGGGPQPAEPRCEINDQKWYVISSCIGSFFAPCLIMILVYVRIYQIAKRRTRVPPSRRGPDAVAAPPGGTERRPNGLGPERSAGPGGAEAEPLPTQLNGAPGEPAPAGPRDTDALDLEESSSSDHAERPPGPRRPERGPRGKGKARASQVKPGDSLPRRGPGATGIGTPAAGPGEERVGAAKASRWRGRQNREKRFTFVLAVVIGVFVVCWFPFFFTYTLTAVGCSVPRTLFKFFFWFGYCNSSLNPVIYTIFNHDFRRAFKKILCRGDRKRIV
Briefly: Binding affinity to alpha2A adrenergic receptor.

For series [9], the target named is hERG (KCNH2) (Homo sapiens, UniProt Q12809). Briefly: Inhibition of human ERG at 10 uM.
For series [10], the target named is D(2) dopamine receptor (Homo sapiens, UniProt P14416). Nature of the series: Binding affinity to dopamine D2 receptor.
Series [11] addresses CYP2D6 (Homo sapiens, UniProt P10635). Briefly: Inhibition of CYP2D6 at 3 uM. In kind it is ADME.
Series [12] deals with CYP2C9 (Homo sapiens, UniProt P11712). Briefly: Inhibition of CYP2C9 at 3 uM. In kind it is ADME.
Series [13] concerns the target T4, 5-hydroxytryptamine receptor 1A (Homo sapiens, UniProt P08908).
T4 sequence (P08908 whole entry): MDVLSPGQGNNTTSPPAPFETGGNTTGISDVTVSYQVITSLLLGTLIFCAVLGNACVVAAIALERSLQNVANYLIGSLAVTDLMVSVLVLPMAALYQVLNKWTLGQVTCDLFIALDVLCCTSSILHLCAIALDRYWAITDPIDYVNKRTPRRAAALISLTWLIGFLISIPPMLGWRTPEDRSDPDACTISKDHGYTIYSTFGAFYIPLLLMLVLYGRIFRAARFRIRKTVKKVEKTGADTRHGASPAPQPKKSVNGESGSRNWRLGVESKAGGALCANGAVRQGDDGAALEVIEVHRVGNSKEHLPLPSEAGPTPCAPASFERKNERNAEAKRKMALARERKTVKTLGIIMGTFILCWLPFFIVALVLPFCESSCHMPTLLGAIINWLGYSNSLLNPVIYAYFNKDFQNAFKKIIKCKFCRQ
Nature of the series: Binding affinity to 5HT1A receptor.

A short description of series [14]: Permeability at pH 7.4 by PAMPA. To be noted: read-out: permeability. In kind it is ADME. (The PAMPA barrier holds no transporters, so it reflects passive diffusion.)
Series [15] has as its system Rattus norvegicus. Nature of the series: Permeability across blood brain barrier in Long-Evans rat at 10 mg/kg, ip administered as single dose. In kind it is ADME, organism-based. Further details: dose 10 mg/kg, route intraperitoneal. As to conditions: in vivo.
Series [16] is described as follows: Half life in rat microsomes. In kind it is ADME, Microsome.
Series [17] addresses CYP3A4 (Homo sapiens, UniProt P08684). Briefly: Inhibition of CYP3A4 at 3 uM. In kind it is ADME.
The target of series [18] is 5-hydroxytryptamine receptor 1B (Homo sapiens, UniProt P28222). Nature of the series: Binding affinity to 5HT1B receptor.
Series [19] has as its system Rattus norvegicus. Briefly: Cognitive enhancing effect in Long-Evans rat assessed as improvement of recognition memory at 3 mg/kg, ip administered 1 hr prior to learning trial measured after 48 hrs during testing trial by novel object recognition test. In kind it is functional, organism-based. Further details: dose 3 mg/kg.

Values after ≈ are worked out from the molar mass of the structure shown. Active and inactive are the calls of the source.

The source of these data is ChEMBL document CHEMBL1157614, “5-Cyclic amine-3-arylsulfonylindazoles as novel 5-HT6 receptor antagonists” (J Med Chem, 2010).

T2 sequence (P41595 whole entry): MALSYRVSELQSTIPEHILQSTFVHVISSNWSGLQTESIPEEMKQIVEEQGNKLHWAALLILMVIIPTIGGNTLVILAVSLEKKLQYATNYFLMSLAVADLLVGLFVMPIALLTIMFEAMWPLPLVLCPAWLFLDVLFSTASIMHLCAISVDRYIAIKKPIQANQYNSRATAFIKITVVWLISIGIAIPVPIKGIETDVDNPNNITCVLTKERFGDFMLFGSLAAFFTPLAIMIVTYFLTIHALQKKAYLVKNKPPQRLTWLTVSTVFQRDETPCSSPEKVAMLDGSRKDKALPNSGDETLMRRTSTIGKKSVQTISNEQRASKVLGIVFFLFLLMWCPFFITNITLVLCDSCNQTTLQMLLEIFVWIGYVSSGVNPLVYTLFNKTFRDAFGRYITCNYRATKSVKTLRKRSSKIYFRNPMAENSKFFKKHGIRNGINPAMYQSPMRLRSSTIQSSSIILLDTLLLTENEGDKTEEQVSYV
T1 sequence (P50406 whole entry): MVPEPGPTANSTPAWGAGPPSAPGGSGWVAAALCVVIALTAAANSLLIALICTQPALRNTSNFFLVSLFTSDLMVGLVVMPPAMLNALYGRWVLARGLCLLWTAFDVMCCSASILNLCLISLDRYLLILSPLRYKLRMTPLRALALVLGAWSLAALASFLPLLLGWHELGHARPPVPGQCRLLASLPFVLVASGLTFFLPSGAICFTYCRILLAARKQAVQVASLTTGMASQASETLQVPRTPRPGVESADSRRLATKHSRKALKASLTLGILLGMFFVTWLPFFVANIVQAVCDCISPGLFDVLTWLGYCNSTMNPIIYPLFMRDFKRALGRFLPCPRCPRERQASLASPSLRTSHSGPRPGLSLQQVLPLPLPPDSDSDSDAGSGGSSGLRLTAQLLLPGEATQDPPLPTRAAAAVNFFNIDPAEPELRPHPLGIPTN
Chain of CYP2C9 (P11712 whole entry): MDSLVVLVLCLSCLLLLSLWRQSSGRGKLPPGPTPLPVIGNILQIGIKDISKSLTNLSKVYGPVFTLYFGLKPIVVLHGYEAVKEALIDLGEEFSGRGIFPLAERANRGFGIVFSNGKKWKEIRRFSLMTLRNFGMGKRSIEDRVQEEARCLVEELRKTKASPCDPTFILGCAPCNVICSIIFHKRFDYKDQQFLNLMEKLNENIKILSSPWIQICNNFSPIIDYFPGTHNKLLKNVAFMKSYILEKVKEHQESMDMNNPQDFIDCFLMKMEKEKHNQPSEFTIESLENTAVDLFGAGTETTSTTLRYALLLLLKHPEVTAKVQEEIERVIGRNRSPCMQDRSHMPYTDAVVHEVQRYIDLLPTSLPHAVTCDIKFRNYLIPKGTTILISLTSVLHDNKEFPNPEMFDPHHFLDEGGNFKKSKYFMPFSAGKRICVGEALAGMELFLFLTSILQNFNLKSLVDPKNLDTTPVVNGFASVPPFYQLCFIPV
Chain of CYP3A4 (P08684 whole entry): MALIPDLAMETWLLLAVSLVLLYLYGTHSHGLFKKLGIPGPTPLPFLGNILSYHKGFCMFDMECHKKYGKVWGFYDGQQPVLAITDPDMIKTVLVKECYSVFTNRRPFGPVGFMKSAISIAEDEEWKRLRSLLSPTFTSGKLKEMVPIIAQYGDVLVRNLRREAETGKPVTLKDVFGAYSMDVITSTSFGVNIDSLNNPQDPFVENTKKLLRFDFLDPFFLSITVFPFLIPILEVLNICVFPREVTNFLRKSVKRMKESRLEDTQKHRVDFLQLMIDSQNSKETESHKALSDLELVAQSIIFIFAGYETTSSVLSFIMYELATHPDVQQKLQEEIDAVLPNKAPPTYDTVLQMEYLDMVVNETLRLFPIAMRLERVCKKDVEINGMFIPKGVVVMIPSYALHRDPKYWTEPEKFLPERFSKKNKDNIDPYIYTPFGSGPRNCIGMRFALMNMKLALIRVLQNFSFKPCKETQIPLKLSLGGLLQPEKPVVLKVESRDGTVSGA
Chain of 5-hydroxytryptamine receptor 1B (P28222 whole entry): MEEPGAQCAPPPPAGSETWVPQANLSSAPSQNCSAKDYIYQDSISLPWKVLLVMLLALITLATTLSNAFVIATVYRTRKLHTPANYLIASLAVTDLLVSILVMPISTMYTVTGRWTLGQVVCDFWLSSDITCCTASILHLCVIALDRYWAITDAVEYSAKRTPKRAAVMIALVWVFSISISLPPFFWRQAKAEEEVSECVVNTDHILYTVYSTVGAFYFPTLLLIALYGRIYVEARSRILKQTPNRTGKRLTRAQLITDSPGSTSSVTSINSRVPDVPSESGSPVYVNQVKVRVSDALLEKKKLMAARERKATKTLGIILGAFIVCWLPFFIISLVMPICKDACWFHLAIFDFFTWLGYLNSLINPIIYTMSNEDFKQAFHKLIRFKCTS
Chain of D(2) dopamine receptor (P14416 whole entry): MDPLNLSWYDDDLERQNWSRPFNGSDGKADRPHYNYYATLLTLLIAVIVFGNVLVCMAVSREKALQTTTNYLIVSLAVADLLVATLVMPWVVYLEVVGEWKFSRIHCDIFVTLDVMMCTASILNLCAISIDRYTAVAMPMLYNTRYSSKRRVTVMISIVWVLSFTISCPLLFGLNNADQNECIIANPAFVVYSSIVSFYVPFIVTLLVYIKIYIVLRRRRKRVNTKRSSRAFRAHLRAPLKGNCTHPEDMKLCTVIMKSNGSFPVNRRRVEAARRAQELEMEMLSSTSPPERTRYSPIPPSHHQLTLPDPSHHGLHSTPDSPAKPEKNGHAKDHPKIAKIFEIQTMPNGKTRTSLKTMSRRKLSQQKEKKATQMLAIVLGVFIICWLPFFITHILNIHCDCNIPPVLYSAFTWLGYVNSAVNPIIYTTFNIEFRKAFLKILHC
Chain of hERG (KCNH2) (Q12809 whole entry): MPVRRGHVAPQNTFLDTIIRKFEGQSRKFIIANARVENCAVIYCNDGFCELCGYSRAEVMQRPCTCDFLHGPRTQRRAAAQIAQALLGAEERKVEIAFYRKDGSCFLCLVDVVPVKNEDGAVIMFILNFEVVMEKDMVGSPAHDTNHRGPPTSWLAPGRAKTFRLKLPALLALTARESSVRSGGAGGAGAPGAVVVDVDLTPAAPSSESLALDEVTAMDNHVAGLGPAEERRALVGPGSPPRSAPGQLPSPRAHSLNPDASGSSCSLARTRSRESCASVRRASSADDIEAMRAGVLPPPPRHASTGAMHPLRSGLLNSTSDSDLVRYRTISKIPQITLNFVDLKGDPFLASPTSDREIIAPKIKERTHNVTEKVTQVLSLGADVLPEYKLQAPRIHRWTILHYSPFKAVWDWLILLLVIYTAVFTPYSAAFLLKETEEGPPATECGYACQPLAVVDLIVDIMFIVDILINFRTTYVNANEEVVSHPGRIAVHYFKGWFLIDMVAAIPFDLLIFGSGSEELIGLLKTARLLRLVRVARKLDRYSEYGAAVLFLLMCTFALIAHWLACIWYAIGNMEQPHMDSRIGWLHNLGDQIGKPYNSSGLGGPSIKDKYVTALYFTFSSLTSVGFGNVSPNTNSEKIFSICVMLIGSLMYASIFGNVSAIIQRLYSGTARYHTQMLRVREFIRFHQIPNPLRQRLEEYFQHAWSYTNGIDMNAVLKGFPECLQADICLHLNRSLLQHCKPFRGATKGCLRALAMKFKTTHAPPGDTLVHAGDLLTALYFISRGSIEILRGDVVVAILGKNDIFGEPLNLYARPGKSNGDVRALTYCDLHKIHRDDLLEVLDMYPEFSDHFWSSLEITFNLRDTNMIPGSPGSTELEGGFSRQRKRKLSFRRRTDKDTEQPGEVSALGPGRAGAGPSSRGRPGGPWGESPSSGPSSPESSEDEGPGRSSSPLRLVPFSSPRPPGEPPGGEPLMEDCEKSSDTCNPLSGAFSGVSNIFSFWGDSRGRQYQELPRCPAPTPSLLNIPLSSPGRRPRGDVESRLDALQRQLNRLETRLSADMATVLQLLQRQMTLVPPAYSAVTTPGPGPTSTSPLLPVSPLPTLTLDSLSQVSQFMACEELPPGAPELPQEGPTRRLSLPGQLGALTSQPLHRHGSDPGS
Chain of CYP2D6 (P10635 whole entry): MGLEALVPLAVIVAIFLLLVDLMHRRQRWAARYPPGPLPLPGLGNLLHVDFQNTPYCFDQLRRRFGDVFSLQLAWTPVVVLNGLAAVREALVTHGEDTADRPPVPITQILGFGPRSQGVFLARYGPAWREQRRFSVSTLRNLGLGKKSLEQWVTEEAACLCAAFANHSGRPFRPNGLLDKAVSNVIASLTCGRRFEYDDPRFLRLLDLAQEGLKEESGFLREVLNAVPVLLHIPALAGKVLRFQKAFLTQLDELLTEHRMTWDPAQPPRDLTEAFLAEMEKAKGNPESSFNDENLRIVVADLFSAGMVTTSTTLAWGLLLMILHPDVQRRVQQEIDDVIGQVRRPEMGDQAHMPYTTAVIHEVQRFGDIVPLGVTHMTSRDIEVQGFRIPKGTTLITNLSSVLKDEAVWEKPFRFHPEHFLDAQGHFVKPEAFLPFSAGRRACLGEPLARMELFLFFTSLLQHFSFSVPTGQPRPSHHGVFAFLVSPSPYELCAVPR
Chain of 5-hydroxytryptamine receptor 1D (P28221 whole entry): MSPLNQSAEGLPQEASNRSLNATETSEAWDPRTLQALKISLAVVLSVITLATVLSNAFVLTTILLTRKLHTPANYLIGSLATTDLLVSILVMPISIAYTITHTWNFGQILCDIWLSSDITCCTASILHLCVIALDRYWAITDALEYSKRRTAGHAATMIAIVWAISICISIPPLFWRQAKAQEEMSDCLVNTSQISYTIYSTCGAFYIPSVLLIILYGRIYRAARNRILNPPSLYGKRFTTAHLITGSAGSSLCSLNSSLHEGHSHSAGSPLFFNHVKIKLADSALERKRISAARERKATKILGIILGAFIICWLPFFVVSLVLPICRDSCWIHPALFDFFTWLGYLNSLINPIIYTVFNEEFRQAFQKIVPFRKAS

Consider `NC1CCN(c2ccc3[nH]nc(S(=O)(=O)c4cccc5c(Cl)cccc45)c3c2)CC1`, for which the Ki in series [1] is 4.52 nM; in series [2], 78 nM. Moreover, the outcome in [3] was inactive. Also, the result in [4] was Active. The IC50 in series [5] was found to be 70.1 nM.
In the same order, the values of `CN(C)[C@H]1CCN(c2ccc3[nH]nc(S(=O)(=O)c4cccc5ccccc45)c3c2)C1` are 24.4 nM, 583 nM, “inactive”, “Active” and 17.5 nM.
`CC(C)c1ccc(S(=O)(=O)c2n[nH]c3ccc(N4CCC(N)CC4)cc23)cc1`: the inhibition constant Ki in series [1] was 13.1 nM; in series [2], above 10000 nM. In addition, in [3], the result was inactive. Besides, the result in series [4] was Active. Also, in series [5], the IC50 turned out to be 51.7 nM.
`NC1CCN(c2ccc3[nH]nc(S(=O)(=O)c4cccc(Cl)c4)c3c2)CC1` returned a Ki in series [2] of 442 nM. For the same molecule, the outcome in series [3] was inactive. In addition, in series [4], the outcome was Active. In [5], the IC50 stood at 33.7 nM.
As to `Cn1nc(S(=O)(=O)c2cccc3ccccc23)c2cc(N3CC[C@@H](N)C3)ccc21`, in [2], the Ki turned out to be 185 nM. In addition, the outcome in series [3] was inactive. The result in [4] was Active. For the same molecule, the IC50 in series [5] came to 316 nM.
With `N[C@@H]1CCN(c2ccc3[nH]nc(S(=O)(=O)c4cccc5ccccc45)c3c2)C1`, the Ki in series [6] is 2270 nM; in series [8], above 10000 nM; in series [10], 2910 nM; in [2] it was 274 nM; in series [13], 4730 nM; in series [18], 6040 nM. Besides, the solubility in series [7] is 63 µg/mL (≈ 161 µM). Further, in series [9], the inhibition at 10 µM was 14%. For the same molecule, the inhibition at 3 µM came to 7% in [11], 73% in series [12] and 88% in series [17]. The outcome in [3] was inactive. The outcome in series [4] was Active. The Papp in series [14] was 0.19 ×10⁻⁶ cm/s. In addition, in series [15], the pBBB worked out at 11 ×10⁻⁶ cm/s. This molecule gave a half-life in [16] of 20 min.
Regarding `NC1CCN(c2ccc3[nH]nc(S(=O)(=O)c4ccc5ccccc5c4)c3c2)CC1`, the Ki in series [1] stood at 18.2 nM; in series [2] it was 1360 nM. In series [3], the outcome was inactive. In [4], the outcome was Active. In addition, the half-inhibitory concentration (IC50) in [5] was found to be 88.9 nM.
In series [2], `N[C@H]1CCN(c2ccc3[nH]nc(S(=O)(=O)c4cccc5ccccc45)c3c2)C1` showed an inhibition constant Ki of 21 nM. The outcome in series [3] was inactive. Further, in [4], the outcome was Active.
`CC(C)n1nc2ccc(N3CC[C@@H](N)C3)cc2c1S(=O)(=O)c1cccc2ccccc12`: the inhibitory constant (Ki) in series [1] was 48.7 nM; in [2], above 3300 nM. For the same molecule, the result in series [3] was inactive. Besides, the outcome in series [4] was Active. Further, the IC50 in series [5] was found to be 380 nM.
`NC1CCN(c2ccc3[nH]nc(S(=O)(=O)c4cccc5ccccc45)c3c2)CC1` gave a Ki in series [2] of 100 nM. For the same molecule, the outcome in series [3] was inactive. In addition, the outcome in series [4] was Active.
Take `Cc1ccc(S(=O)(=O)c2n[nH]c3ccc(N4CCC(N)CC4)cc23)c2ccccc12`: the Ki in [1] stood at 3.62 nM; in [2] it was 493 nM. In [3], the outcome was inactive. For the same molecule, the outcome in [4] was Active. Also, in [5], the IC50 came out at 26.7 nM.
As for `CC(C)Cn1nc(S(=O)(=O)c2cccc3ccccc23)c2cc(N3CC[C@@H](N)C3)ccc21`, in series [2], the Ki was above 3300 nM. The result in series [3] was inactive. The result in [4] was Active. Besides, the half-inhibitory concentration (IC50) in series [5] came to 203 nM.
The molecule `CC(C)n1nc(S(=O)(=O)c2cccc3ccccc23)c2cc(N3CC[C@@H](N)C3)ccc21` gave an inhibitory constant (Ki) in series [2] of 191 nM. For the same molecule, the result in series [3] was inactive. Moreover, the result in [4] and in series [19] was Active. Further, the IC50 in series [5] worked out at 157 nM.
`CC(C)Cn1nc2ccc(N3CC[C@@H](N)C3)cc2c1S(=O)(=O)c1cccc2ccccc12`: the Ki in series [1] was 75.8 nM; in series [2], 260 nM. Besides, the result in series [3] was inactive. The outcome in series [4] was Active. The IC50 in series [5] was found to be 433 nM.
As for `Cn1nc2ccc(N3CC[C@@H](N)C3)cc2c1S(=O)(=O)c1cccc2ccccc12`, the results for the inhibitory constant (Ki) in series [1] and in [2] were 54.3 nM and 455 nM, respectively. Further, in series [3], the result was inactive. Moreover, the result in series [4] was Active. Besides, in [5], the IC50 turned out to be 444 nM.
`NC1CN(c2ccc3[nH]nc(S(=O)(=O)c4cccc5ccccc45)c3c2)C1`: the Ki is 3.55 nM in [1] and 97.9 nM in [2]. Moreover, the result in series [3] was inactive. Moreover, the result in series [4] was Active. Moreover, the IC50 in series [5] came to 16.5 nM.
For `CN(C)[C@@H]1CCN(c2ccc3[nH]nc(S(=O)(=O)c4cccc5ccccc45)c3c2)C1`, the Ki was determined as 0.51 nM in series [1] and 423 nM in series [2]. Moreover, in series [3], the outcome was inactive. Besides, the outcome in series [4] was Active. The IC50 in series [5] was determined as 39.6 nM.

The term Ki denotes the dissociation constant of the complex between target and ligand, obtained from inhibition or displacement. A low value points to a stronger hold on the target. By IC50 is commonly meant the concentration that inhibits the measured activity by half. A word on the solubility: it is the concentration that dissolves in the medium under given conditions. As a reminder, the inhibition is the share of the control response that was lost under treatment. By half-life is commonly meant the time needed for the level to fall by half in the phase considered. Low readings indicate rapid decline, high ones slow decline.
